In patent US20040248992A1, “Method and composition for inhibiting arteriosclerosis” (KANEKA CORPORATION, priority 2000, published 2004):

Experiments:
[1] = Plasma level of the reduced coenzyme Q10 in hamsters on high-fat diet (HPLC); type: in vivo
Procedure: Hamsters were fed on a high-fat diet containing 1.5% of cholesterol for one week and, then, a 1% (w/v) solution of either the oxidized or the reduced coenzyme Q10 in olive oil was administered orally for 4 consecutive days. After overnight fasting, the plasma was collected and the reduced coenzyme Q10 in the plasma was assayed by HPLC.

[2] = test system: plasma low-density lipoprotein (LDL); test: Antioxidant activity of plasma LDL (lag time of copper-induced conjugated diene formation) in hamsters on high-fat diet; type: in vivo; conditions: 1% (w/v) solution in olive oil plus pravastatin 10 mg/kg orally for 4 consecutive days, LDL 40 μg protein/mL, copper ion 1 μM, 234 nm, n = 3
Procedure: Hamsters were fed on a high-fat diet containing 1.5% of cholesterol for 1 week and, then, dosed orally with a 1% (w/v) solution of either the oxidized or the reduced coenzyme Q10 in olive oil and 10 mg of pravastatin per kg body weight for 4 consecutive days. After overnight fasting, the plasma was collected, the plasma LDL was separated by density-gradient centrifugation method, and as a marker of LDL antioxidant activity, the lag time was measured. The lag time is defined herein as the value found by adding a copper ion (1 μM) to LDL (40 μg protein/mL) and monitoring at 234 nm the time course of conjugated diene structure of oxidized fat/fatty acid resulting from oxidation to determine the time interval until a sharp increase had begun in the conjugated diene concentration.

Gain in reduced coenzyme Q10 in plasma ([1]; hamster, in vivo, po, 4 days) [ng/mL]	Gain in reduced coenzyme Q10 in plasma, relative to oxidized coenzyme Q10 group (100%) ([1]; hamster, in vivo, po, 4 days) [%]	Structure (SMILES)	Lag time (LDL antioxidant activity) [2] [min]	Gain in reduced coenzyme Q10 in plasma ([1]; hamsters on high-fat diet (1.5% cholesterol, 1 week), 1% (w/v) solution in olive oil orally for 4 consecutive days, plasma after overnight fasting, n = 3) [ng/mL]	Gain in reduced coenzyme Q10 in plasma, relative to oxidized coenzyme Q10 group (100%) ([1]; hamsters on high-fat diet, 1% (w/v) solution in olive oil orally for 4 consecutive days, n = 3) [%]
10.1	100	COC1=C(OC)C(=O)C(C/C=C(\C)CC/C=C(\C)CC/C=C(\C)CC/C=C(\C)CC/C=C(\C)CC/C=C(\C)CC/C=C(\C)CC/C=C(\C)CC/C=C(\C)CCC=C(C)C)=C(C)C1=O [oxidized coenzyme Q10]	25 ± 8		
		COc1c(O)c(C)c(C/C=C(\C)CC/C=C(\C)CC/C=C(\C)CC/C=C(\C)CC/C=C(\C)CC/C=C(\C)CC/C=C(\C)CC/C=C(\C)CC/C=C(\C)CCC=C(C)C)c(O)c1OC [reduced coenzyme Q10]	44 ± 9	14.4	143
